In brackets after ≈: the same amount, converted by molar mass. Read-outs that look alike come from different tables or passages of the source.
Legend:
[1] = target: papain-like proteinase (PLpro) (Severe acute respiratory syndrome coronavirus 2, UniProt P0DTD1); assay: Papain-like proteinase; type: biochemical, SARS-CoV2; details: read-out: PLpro (Inhibition %)
[2] = target: SARS-CoV2 RBD / ACE2 protein complex (Severe acute respiratory syndrome coronavirus 2, UniProt P0DTC2); assay: Spike protein RBD-ACE2 complex formation ELISA; type: binding
ACE2 protein = ACE2 protein (Homo sapiens, UniProt Q9BYF1); assay: ACE2 binding
SARS-CoV2 = assay: microbe, parasite or virus in culture; type: cell-based; details: for EC50: Severe acute respiratory syndrome coronavirus 2, Vero C1008
SARS-CoV2 ORF gene = type: cell-based
BetaCoV E-gene = type: cell-based, SARS-CoV2
BetaCoV RdRp gene = type: cell-based, SARS-CoV2
human red blood cells = assay: Red blood cells toxicity; type: cell-based; details: Erythrocyte, 1 h, read-out: RBC IC50 (µg/ml)
[3] = test system: Peripheral blood mononuclear cells (PBMC); assay: Peripheral blood mononuclear cells toxicity; type: cell-based; details: Homo sapiens, 24 h, read-out: PBMC IC50 (µg/ml)
[4] = test system: klebsila pneumonia ATCC700603; assay: Agar well diffusion assay; type: cell-based
[5] = test system: Staphylococcus aureus ATCC25923; assay: Agar well diffusion assay; type: cell-based
[6] = test system: Streptococcus pyogenes EMCC1772; assay: Agar well diffusion assay; type: cell-based
Candida albicans EMCC105 [7] = assay: Agar well diffusion assay; type: cell-based
[8] = test system: klebsila pneumonia ATCC700603; assay: Turbidity assay; type: cell-based
[9] = test system: Staphylococcus aureus ATCC25923; assay: Turbidity assay; type: cell-based
[10] = test system: Streptococcus pyogenes EMCC1772; assay: Turbidity assay; type: cell-based
Candida albicans EMCC105 [11] = assay: Turbidity assay; type: cell-based
white blood cells (WBC) = assay: Elimination of HCQ toxicity: HCQ induced WBC cytotoxicity; type: cell-based; details: HCQ 200 µg/ml
red blood cells = assay: Elimination of HCQ toxicity: HCQ induced RBC hemolysis; details: HCQ 27.5 µg/ml
[12] = In vivo HCQ toxicity elimination: CBC profile and blood chemistry; details: mice, oral
Antioxidant activity = details: DPPH, 30 min in the dark
[13] = ref Zou et al. [2020], cited from earlier work

Sequence of ACE2 protein (Q9BYF1 18-805): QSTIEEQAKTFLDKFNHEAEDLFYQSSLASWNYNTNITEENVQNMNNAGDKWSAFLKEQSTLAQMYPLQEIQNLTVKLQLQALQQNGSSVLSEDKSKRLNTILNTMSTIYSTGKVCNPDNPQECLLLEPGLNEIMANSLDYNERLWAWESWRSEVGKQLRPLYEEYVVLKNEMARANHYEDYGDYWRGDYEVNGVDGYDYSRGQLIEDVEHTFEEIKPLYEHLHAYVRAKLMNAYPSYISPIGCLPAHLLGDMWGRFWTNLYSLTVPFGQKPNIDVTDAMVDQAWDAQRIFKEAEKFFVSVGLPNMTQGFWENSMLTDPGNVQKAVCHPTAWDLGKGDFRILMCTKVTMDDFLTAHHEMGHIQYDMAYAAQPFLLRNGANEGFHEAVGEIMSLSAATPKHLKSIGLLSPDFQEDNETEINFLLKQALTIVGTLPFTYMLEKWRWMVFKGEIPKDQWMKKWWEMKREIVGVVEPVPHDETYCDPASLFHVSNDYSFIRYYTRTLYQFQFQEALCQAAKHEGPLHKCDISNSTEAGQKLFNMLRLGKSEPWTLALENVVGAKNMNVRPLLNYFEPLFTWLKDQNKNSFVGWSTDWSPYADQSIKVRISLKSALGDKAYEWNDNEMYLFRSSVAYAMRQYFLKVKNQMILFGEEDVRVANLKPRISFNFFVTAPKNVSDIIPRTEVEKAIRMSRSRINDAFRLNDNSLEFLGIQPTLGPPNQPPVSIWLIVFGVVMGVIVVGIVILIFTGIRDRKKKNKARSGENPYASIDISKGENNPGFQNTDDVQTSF

`COc1ccc2cc3[n+](cc2c1OC)CCc1cc2c(cc1-3)OCO2` [BER, Berberine chloride hydrate] gave an inhibition at 62.5 µg/mL [1] of 49.8 ± 0.19%, an inhibition at 126 µg/mL [1] of 65.89 ± 0.17% and an inhibition at 252 µg/mL [1] of 78.93 ± 0.36%. For the same molecule, the inhibition at 504 µg/mL [1] was 84.8 ± 0.12%, the inhibition at 1008 µg/mL [1] was 93.26 ± 0.73% and the “Spike protein- RBD- complex formation (Fold change)” value ([2]; 62.5 µg/ml) was 03.88 ± 0.08 Fold change. The “Spike protein- RBD- complex formation (Fold change)” value ([2]; 126 µg/ml) was 08.00 ± 0.10 Fold change, the “Spike protein- RBD- complex formation (Fold change)” value ([2]; 252 µg/ml) was 08.50 ± 0.00 Fold change and the “Spike protein- RBD- complex formation (Fold change)” value ([2]; 504 µg/ml) was 16.13 ± 0.20 Fold change. For the same molecule, the “Spike protein- RBD- complex formation (Fold change)” value ([2]; 1008 µg/ml) was 16.13 ± 0.03 Fold change, the “ACE2 (Binding %)” value (ACE2 protein; 62.5 µg/ml) was 13.10 ± 0.07% and the “ACE2 (Binding %)” value (ACE2 protein; 126 µg/ml) was 13.10 ± 0.90%. The “ACE2 (Binding %)” value (ACE2 protein; 252 µg/ml) was 13.90 ± 1.10%, the “ACE2 (Binding %)” value (ACE2 protein; 504 µg/ml) was 15.60 ± 1.60% and the “ACE2 (Binding %)” value (ACE2 protein; 1008 µg/ml) was 15.60 ± 1.10%. For the same molecule, the “Vero E6 reduction (%)” value (SARS-CoV2) was 80.00 ± 1.7%, the EC50 (SARS-CoV2) was 16.7 ± 0.01 µg/mL and the EC50/IC50% (SARS-CoV2; antiviral EC50 relative to Vero E6 IC50) was 32.9 ± 0.4%. For the same molecule, the “ORF gene down regulation (%)” value (SARS-CoV2 ORF gene; 2.5 µg/ml) was 11.73 ± 0.1%, the ORF gene expression (SARS-CoV2 ORF gene; 2.5 µg/ml) was 0.88 ± 0.001 and the “ORF gene down regulation (%)” value (SARS-CoV2 ORF gene; 5 µg/ml) was 21.54 ± 0.2%. The ORF gene expression (SARS-CoV2 ORF gene; 5 µg/ml) was 0.79 ± 0.003, the “ORF gene down regulation (%)” value (SARS-CoV2 ORF gene; 10 µg/ml) was 60.22 ± 0.8% and the ORF gene expression (SARS-CoV2 ORF gene; 10 µg/ml) was 0.39 ± 0.002. The “ORF gene down regulation (%)” value (SARS-CoV2 ORF gene; 20 µg/ml) was 86.69 ± 0.1%, the ORF gene expression (SARS-CoV2 ORF gene; 20 µg/ml) was 0.13 ± 0.008 and the “E-gene down regulation (%)” value (BetaCoV E-gene; 2.5 µg/ml) was 89.77 ± 3.5%. For the same molecule, the E-gene expression (BetaCoV E-gene; 2.5 µg/ml) was 0.102 ± 0.0003, the “E-gene down regulation (%)” value (BetaCoV E-gene; 5 µg/ml) was 99.30 ± 1.8% and the E-gene expression (BetaCoV E-gene; 5 µg/ml) was 0.007 ± 0.0005. For the same molecule, the “E-gene down regulation (%)” value (BetaCoV E-gene; 10 µg/ml) was 99.70 ± 4.5%, the E-gene expression (BetaCoV E-gene; 10 µg/ml) was 0.003 ± 0.0001 and the “E-gene down regulation (%)” value (BetaCoV E-gene; 20 µg/ml) was 99.98 ± 3.9%. The E-gene expression (BetaCoV E-gene; 20 µg/ml) was 0.0002 ± 0.00001, the “RdRp down regulation (%)” value (BetaCoV RdRp gene; 2.5 µg/ml) was 76.67 ± 2.9% and the RdRp expression (BetaCoV RdRp gene; 2.5 µg/ml) was 0.233 ± 0.001. For the same molecule, the “RdRp down regulation (%)” value (BetaCoV RdRp gene; 5 µg/ml) was 79.26 ± 3.5%, the RdRp expression (BetaCoV RdRp gene; 5 µg/ml) was 0.207 ± 0.002 and the “RdRp down regulation (%)” value (BetaCoV RdRp gene; 10 µg/ml) was 94.95 ± 6.9%. The RdRp expression (BetaCoV RdRp gene; 10 µg/ml) was 0.050 ± 0.0003, the “RdRp down regulation (%)” value (BetaCoV RdRp gene; 20 µg/ml) was 99.89 ± 3.8% and the RdRp expression (BetaCoV RdRp gene; 20 µg/ml) was 0.001 ± 0.00009. It also gave an IC50 (human red blood cells) of 1349 ± 10.3 µg/mL, an IC50 [3] of 22.2 ± 0.9 µg/mL and an MIC [4] of 1850 µg/mL. It also gave an MIC [5] of 926 µg/mL, an MIC [6] of 463 µg/mL and an MIC (Candida albicans EMCC105 [7]) of 1850 µg/mL. For the same molecule, the MIC [8] was 463 µg/mL, the MIC [9] was 463 µg/mL and the MIC [10] was 463 µg/mL. The MIC (Candida albicans EMCC105 [11]) was 463 µg/mL, the “prevention of HCQ cytotoxic effect towards WBC” value (white blood cells (WBC)) was ~6.7 folds and the “decrease of the hemolytic activity induced by HCQ” value (red blood cells) was 42.85%. For the same molecule, the “prevention of HCQ adverse effect on co-administration with HCQ” value ([12]; blood chemistry) was “moderately prevented” and the “effect on normal CBC parameters” value ([12]; p < 0.05) was “did not affect normal CBC parameters”.
`CCN(CCO)CCCC(C)Nc1ccnc2cc(Cl)ccc12` (stereo not drawn) [HCQ, hydroxychloroquine] showed an inhibition at 12.5 µg/mL [1] of 8.1 ± 0.74%, an inhibition at 25 µg/mL [1] of 11.2 ± 0.39% and an inhibition at 50 µg/mL [1] of 22.5 ± 0.15%. The inhibition at 100 µg/mL [1] was 30 ± 0.23%, the inhibition at 200 µg/mL [1] was 37 ± 0.42% and the “ACE2 (Binding %)” value (ACE2 protein; 12.5 µg/ml) was 09.02 ± 0.50%. For the same molecule, the “ACE2 (Binding %)” value (ACE2 protein; 200 µg/ml) was 15.60 ± 1.40%, the EC50/IC50% (SARS-CoV2) was 27.5 ± 0.9% and the “Vero E6 reduction (%)” value (SARS-CoV2) was 76.00 ± 1.8%. It also gave an EC50 (SARS-CoV2) of 0.39 ± 0.009 µg/mL (≈ 1.16 µM), an IC50 (human red blood cells) of 52 ± 0.9 µg/mL (≈ 155 µM) and an IC50 [3] of 3.2 ± 0.3 µg/mL (≈ 9.53 µM). For the same molecule, the “Antioxidants IC50” value (Antioxidant activity) was 362.7 ± 6.7 µg/mL, the “oral dose reaching the blood” value ([13]; oral) was “about 50%” and the “accumulation in brain and spinal cord tissue, times higher than plasma level” value [13] was 30 times. For the same molecule, the “accumulation in the liver and lung, times higher than plasma concentration” value [13] was 700 times.
